In one assay the target is CBP (Homo sapiens, UniProt Q92793). The assay can be described thus: commercial Bromoscan assay. The assay is classed as binding. The procedure: was used as the calibration curve. To obtain saturated solutions of the compounds of interest, in duplicates 4.4 µL of a 10 or 5 mM stock in DMSO was added to 436 µL Buffer (PBS, pH = 7.4), to give a final concentration of 100 or 50 µM. Samples were incubated on a shaker (500 rpm) at 37°C for 90 minutes and then filtered (Millex-GV 13 mm, 0.22 µm). 304 µL of the filtrate was mixed with 76 µL of acetonitrile on a dilution plate, from which 350 µL was transferred to a UV-plate and UV-absorption was read using a SpectraMax M5 (Molecular devices). The absorbance was blank-corrected and compared to the calibration curve to […]
Chain of CBP (Q92793 1085-1192 limits assumed): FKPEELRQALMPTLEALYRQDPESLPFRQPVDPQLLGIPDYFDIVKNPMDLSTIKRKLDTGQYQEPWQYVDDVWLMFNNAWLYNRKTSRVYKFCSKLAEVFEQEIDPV
solubility. […]
lower solubility (2) compounds respectively in a 12.5 w/v% CAPTISOL® solution in water. […] Based on the known density of 12.5 % CAPTISOL® solution (d = 1.05755 g/mL at 25 °C), the precise weight of the resulting solution and so the required amount of water by weight was calculated. […] In duplicates, aliquots of the filtrates were taken and diluted with blank 12.5 % CAPTISOL® water solution in either a 1:14 (higher sol. compounds) or 1:7 (lower sol. compounds) ratio, 350 µL was transferred to a 96-Well Plate (Greiner, UV-star) then UV absorption (240-400 nm, 10 nm steps) was measured using a SpectraMax M5 (Molecular devices). […] The calculated concentrations are available in Table S4. […]
The bromodomain concentration in the eluates was measured by qPCR. […]

Another assay has as its system MCF7. As to the kind of experiment: NCI-60 one-dose screen. Type of assay: cell-based, human. The following applies: 10 µM, 48 h, Breast Cancer. The method, then:
(§1) Adapted from NCI-60 Screening Methodology, one-dose screen:20 Briefly, human tumor cell lines, grown in RPMI 1640 containing 5% FBS and 2 mM L-glutamine, were plated in 96 well plates at densities ranging from 5,000 to 40,000 cells/well 24 h prior to addition of test compounds (here 10 μM 2). 400x solutions of test compounds were prepared in DMSO, then diluted to 2x in medium supplemented with 50 μg/mL gentamicin. 100 μl of this 2x stock was added to cells previously plated in 100 μl medium, resulting in the desired final compound concentration. Cells were fixed in situ with cold TCA: untreated cells at the time of compound addition (Tz) and treated cells 48 h after addition of compound (Ti). Cells were washed, then su f rh damine s uti n μ at . w/v in acetic acid was added to each well and incubated for 10 minutes at room temperature. After washing again, the plates were air dried and bound stain solubilized with 10 mM Trizma base before absorbance was […]
(§2) Percentage growth (%Growth) was calculated as follows:
(§3) when Ti ≥ Tz, %Growth = Ti − Tz x 100 where Ti = absorbance from compound treated cells, Tz = absorbance from untreated cells at time zero, and C = absorbance from control (DMSO) treated cells. […]

The test system of the next assay is CAKI-1. The assay can be described thus: NCI-60 one-dose screen. Type of assay: cell-based, human. The following applies: 10 µM, 48 h, Renal Cancer. The method, then: as §1, §2, §3
The next assay has as its system A549/ATCC. As to the kind of experiment: NCI-60 one-dose screen. The assay is classed as cell-based, human. The following applies: 10 µM, 48 h, Non-Small Cell Lung Cancer. The procedure: as §1, §2, §3
The next assay deals with NCI/ADR-RES. The assay can be described thus: NCI-60 one-dose screen. The assay is classed as cell-based, human. The following applies: 10 µM, 48 h, Ovarian Cancer. The method, then:
as §1, §2, §3

Another assay has as its system OVCAR-3. The assay can be described thus: NCI-60 one-dose screen. Type of assay: cell-based, human. The following applies: 10 µM, 48 h, Ovarian Cancer. The procedure:
as §1, §2, §3

For a further assay, the system named is UACC-257. As to the kind of experiment: NCI-60 one-dose screen. Type of assay: cell-based, human. The conditions noted are these: 10 µM, 48 h, Melanoma. The method, then: as §1, §2, §3
A further assay has as its system M14. As to the kind of experiment: NCI-60 one-dose screen. Type of assay: cell-based, human. The conditions noted are these: 10 µM, 48 h, Melanoma. The procedure: as §1, §2, §3
The next assay relates to MALME-3M. As to the kind of experiment: NCI-60 one-dose screen. The assay is classed as cell-based, human. The conditions noted are these: 10 µM, 48 h, Melanoma. The method, then: as §1, §2, §3
In the next assay the test system is HT29. As to the kind of experiment: NCI-60 one-dose screen. Type of assay: cell-based, human. The conditions noted are these: 10 µM, 48 h, Colon Cancer. The procedure: as §1, §2, §3
The next assay relates to MOLT-4. As to the kind of experiment: NCI-60 one-dose screen. Type of assay: cell-based, human. The conditions noted are these: 10 µM, 48 h, Leukemia. The procedure:
as §1, §2, §3

For another assay, the system named is ACHN. The assay can be described thus: NCI-60 one-dose screen. The assay is classed as cell-based, human. The conditions noted are these: 10 µM, 48 h, Renal Cancer. The procedure:
as §1, §2, §3

The test system of another assay is SF-295. The assay can be described thus: NCI-60 one-dose screen. The conditions noted are these: 10 µM, 48 h, CNS Cancer. The assay is classed as cell-based, human. The method, then: as §1, §2, §3
The next assay deals with LOX IMVI. As to the kind of experiment: NCI-60 one-dose screen. Type of assay: cell-based, human. The following applies: 10 µM, 48 h, Melanoma. The method, then: as §1, §2, §3
A further assay deals with SK-OV-3. As to the kind of experiment: NCI-60 one-dose screen. The following applies: 10 µM, 48 h, Ovarian Cancer. Type of assay: cell-based, human. The method, then: as §1, §2, §3

Experimental findings from PMC12188386, “Selective CBP/EP300 Bromodomain Inhibitors: Novel Epigenetic Tools to Counter TNF-α-Driven Inflammation” (JACS Au, 2025) are described below.

As usually defined, the Kd is the equilibrium constant for the complex coming apart. A low value points to a tighter complex. On to `Cc1cc2c(NC(=O)c3cc(NC(=O)c4ccco4)cc(-c4ccn(C)n4)c3)cccc2nn1` [Compound 2], for which binding at CBP was characterised by a dissociation constant (Kd) of 9 nM. For the same compound, the “%Growth” value with MCF7 amounted to 22%; with CAKI-1, 22%; with A549/ATCC, 61%; in the assay with NCI/ADR-RES it was 91%; with OVCAR-3, 23%; in the assay with UACC-257, 66%. The “%Growth” value in the assay with M14 was determined as 25%; in the assay with MALME-3M, 40%; in the assay with HT29, 21%; in the assay on MOLT-4, 53%; in the assay with ACHN, 73%; in the assay with SF-295 it was 42%. Besides, the “%Growth” value amounted to 34% with LOX IMVI and 86% in the assay on SK-OV-3.
